Assays:
Experiment in all cases: two-electrode voltage clamp, Xenopus oocytes
Assay type in all cases: cell-based
agTRPA1(B) = target: T1, agTRPA1(B) (Anopheles gambiae, UniProt B3G3I7)
T1 construct: isoform with TRPA1(B)-type N-terminus and exon6a-encoded BAT; cRNA-injected Xenopus laevis oocytes
T1 sequence (B3G3I7 1-1248): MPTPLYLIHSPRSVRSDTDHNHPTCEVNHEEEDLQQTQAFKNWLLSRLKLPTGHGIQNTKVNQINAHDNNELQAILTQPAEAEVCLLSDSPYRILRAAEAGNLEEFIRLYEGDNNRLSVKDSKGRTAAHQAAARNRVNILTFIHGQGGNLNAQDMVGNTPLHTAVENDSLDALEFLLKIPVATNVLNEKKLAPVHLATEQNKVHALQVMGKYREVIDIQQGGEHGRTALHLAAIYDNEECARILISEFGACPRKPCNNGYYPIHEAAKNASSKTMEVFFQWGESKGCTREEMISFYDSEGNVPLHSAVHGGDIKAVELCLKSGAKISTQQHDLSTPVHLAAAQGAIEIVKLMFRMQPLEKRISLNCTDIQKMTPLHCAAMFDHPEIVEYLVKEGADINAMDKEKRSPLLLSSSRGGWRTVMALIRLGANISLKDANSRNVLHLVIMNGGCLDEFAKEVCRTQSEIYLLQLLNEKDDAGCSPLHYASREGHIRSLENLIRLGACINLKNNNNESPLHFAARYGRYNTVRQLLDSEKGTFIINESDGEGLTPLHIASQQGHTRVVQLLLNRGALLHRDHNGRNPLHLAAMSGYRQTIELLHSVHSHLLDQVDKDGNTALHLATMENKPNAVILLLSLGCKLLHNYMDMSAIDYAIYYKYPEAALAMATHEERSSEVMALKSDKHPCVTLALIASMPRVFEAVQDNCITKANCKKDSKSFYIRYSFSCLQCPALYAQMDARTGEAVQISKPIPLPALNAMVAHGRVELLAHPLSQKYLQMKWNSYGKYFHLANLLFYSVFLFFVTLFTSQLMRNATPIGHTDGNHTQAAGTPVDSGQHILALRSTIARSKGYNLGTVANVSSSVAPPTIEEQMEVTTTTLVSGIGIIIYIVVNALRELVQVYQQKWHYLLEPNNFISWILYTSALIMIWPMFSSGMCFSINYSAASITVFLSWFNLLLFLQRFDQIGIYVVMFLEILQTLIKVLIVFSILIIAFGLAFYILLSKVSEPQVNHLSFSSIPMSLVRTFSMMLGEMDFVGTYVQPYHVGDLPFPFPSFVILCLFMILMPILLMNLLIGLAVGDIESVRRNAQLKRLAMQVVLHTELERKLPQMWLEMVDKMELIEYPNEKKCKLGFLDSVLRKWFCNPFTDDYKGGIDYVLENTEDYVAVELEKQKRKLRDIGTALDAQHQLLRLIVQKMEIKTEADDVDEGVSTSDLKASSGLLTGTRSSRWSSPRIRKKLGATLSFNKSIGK

agTRPA1(A) = target: T2, agTRPA1(A) (Anopheles gambiae, UniProt A0A1S4GN50)
T2 construct: isoform with TRPA1(A)-type N-terminus and exon6a-encoded BAT; cRNA-injected Xenopus laevis oocytes
T2 sequence (A0A1S4GN50 1-1208): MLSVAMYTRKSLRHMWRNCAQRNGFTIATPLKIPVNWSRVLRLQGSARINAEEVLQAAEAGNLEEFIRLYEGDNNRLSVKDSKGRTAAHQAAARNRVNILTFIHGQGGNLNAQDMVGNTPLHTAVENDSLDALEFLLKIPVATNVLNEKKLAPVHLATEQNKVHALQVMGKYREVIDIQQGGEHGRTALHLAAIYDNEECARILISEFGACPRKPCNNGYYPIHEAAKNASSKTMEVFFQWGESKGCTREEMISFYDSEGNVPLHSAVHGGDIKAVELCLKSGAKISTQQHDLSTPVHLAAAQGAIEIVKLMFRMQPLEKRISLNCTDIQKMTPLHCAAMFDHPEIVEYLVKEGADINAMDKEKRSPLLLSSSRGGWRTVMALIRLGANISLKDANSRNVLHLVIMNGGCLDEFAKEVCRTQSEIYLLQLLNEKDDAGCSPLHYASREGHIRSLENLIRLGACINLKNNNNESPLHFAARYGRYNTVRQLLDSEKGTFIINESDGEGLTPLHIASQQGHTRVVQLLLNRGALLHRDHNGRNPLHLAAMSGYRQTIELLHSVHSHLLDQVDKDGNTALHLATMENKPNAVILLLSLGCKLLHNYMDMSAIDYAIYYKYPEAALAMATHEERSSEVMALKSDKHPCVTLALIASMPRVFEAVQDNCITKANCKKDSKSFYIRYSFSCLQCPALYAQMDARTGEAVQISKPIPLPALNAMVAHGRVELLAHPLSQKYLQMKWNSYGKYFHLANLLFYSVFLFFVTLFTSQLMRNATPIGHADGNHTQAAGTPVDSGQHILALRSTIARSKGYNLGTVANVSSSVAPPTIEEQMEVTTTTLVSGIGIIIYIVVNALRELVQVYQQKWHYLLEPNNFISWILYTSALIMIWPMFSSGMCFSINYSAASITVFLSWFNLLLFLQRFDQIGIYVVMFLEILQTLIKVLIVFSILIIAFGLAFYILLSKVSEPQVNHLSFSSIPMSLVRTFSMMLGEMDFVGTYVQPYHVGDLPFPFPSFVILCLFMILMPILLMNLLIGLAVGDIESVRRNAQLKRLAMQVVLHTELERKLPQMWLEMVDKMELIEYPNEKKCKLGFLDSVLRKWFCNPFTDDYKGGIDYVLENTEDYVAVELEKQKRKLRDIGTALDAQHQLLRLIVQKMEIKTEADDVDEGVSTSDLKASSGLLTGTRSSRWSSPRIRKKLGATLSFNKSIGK

[1] = target: T3, TRPA1(A) (TRPA1(A)-exon10a) (Drosophila melanogaster, UniProt Q7Z020)
T3 construct: full-length isoform with exon1a-encoded N-terminus and exon10a-encoded BAT domain; cRNA-injected Xenopus laevis oocytes
T3 sequence (Q7Z020 1-1197): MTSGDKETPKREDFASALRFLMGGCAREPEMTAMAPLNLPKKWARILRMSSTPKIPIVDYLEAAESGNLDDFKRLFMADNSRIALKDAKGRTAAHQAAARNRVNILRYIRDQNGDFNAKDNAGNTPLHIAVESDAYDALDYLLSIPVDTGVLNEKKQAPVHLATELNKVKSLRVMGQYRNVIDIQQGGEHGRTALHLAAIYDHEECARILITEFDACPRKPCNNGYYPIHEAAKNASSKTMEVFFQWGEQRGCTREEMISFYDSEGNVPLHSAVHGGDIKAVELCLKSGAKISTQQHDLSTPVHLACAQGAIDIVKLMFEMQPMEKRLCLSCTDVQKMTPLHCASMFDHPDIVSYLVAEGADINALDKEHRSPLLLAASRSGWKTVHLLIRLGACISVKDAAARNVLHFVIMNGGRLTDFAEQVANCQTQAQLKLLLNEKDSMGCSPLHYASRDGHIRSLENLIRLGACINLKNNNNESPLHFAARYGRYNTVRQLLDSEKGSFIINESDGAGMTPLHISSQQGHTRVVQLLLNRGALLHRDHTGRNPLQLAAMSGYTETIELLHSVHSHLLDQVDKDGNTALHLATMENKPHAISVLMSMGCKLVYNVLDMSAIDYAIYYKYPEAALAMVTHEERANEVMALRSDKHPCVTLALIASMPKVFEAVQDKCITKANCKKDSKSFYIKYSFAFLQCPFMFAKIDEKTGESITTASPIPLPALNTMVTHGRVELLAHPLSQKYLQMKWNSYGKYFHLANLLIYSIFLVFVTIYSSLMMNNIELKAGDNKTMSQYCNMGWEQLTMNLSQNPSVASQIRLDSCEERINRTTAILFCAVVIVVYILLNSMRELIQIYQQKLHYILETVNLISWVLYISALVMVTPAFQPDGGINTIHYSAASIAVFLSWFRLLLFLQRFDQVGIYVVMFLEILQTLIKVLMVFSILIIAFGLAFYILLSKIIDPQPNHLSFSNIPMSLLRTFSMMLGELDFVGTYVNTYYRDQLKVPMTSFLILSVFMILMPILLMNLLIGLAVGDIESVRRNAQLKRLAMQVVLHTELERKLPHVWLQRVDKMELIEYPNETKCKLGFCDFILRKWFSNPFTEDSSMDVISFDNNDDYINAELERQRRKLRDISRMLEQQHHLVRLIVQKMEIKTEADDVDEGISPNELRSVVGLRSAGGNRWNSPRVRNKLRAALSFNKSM

humTRPA1 = target: T4, humTRPA1 (Homo sapiens, UniProt O75762)
T4 construct: gene TRPA1; human TRPA1; cRNA-injected Xenopus laevis oocytes (electrophysiology as for insect TRPA1s)
T4 sequence (O75762 whole entry): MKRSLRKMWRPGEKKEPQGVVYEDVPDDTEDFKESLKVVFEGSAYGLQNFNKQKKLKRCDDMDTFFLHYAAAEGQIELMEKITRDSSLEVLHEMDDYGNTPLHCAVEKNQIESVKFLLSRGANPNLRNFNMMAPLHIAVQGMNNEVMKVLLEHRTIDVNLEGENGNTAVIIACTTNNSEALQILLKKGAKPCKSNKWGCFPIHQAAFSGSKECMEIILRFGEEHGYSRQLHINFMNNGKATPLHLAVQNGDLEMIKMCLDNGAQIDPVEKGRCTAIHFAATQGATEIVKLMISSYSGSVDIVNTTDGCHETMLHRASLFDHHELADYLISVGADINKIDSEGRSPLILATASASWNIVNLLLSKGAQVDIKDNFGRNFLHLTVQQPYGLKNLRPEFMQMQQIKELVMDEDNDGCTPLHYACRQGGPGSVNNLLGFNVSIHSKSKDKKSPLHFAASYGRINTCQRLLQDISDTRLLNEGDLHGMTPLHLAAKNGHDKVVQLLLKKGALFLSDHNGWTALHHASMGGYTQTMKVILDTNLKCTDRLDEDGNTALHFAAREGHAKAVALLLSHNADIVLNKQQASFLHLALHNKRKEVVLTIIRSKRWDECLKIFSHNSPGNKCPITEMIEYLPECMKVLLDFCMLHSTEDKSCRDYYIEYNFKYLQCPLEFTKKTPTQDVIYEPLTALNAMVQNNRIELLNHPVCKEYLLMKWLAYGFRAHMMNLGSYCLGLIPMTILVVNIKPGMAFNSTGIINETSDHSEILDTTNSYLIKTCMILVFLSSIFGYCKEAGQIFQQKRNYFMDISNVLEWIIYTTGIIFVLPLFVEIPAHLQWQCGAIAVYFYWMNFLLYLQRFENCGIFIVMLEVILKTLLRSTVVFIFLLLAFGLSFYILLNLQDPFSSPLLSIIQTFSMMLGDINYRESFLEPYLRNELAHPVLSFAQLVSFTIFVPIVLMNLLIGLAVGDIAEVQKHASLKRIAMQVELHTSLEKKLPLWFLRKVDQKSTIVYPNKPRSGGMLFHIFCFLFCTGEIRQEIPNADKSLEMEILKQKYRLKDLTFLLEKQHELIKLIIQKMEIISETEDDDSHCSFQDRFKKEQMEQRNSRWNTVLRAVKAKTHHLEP

Structure (SMILES): CN1C(=O)C=CC1=O [N-methyl maleimide]
- EC50 (agTRPA1(B)): 39.5 ± 1.1 µM
- EC50 (agTRPA1(A)): 43.8 ± 3.9 µM
- EC50 [1]: 13.6 ± 0.6 µM
- EC50 (humTRPA1): 5.1 ± 0.5 µM

From article PMC11471635, “Linkage of alternative exon assembly in Drosophila TrpA1 transcripts” (Molecules and Cells, 2024)
